# Reference: patent publication US20250345344A1, “NOVEL NRF2 ACTIVATOR AND USE THEREOF” (SHANGHAI INSTITUTE FOR BIOMEDICAL AND PHARMACEUTICAL …, priority 2022, published 2025)
# Tests used:
# ovarian granulosa cells = test: Protection of primary ovarian granulosa cells against doxorubicin (DOX) cytotoxicity, CCK-8; assay type: cell-based, mice; settings: DOX alone, final concentration 25 μg/mL
# Description: In-vitro-Culture of granulosa cells of mice. Female ICR mice aged 21 to 23 days were euthanized by dislocation after anesthesia. After disinfecting the abdominal skin with 75% alcohol, bilateral ovaries were taken out and antral follicles were punctured under dissecting microscope to release granulosa cells into a M2 culture medium containing 20% FBS. Then the culture medium was centrifuged at 1,000 revolutions per minute for 5 minutes. Supernatant was discarded, and residue was washed three times with a culture medium, and then was placed in a 96 well plate in an alpha MEM culture medium containing 5% FBS for further culture. […]
# After the granulosa cells in a 96 well plate prolificated to 70% to 80%, the culture medium was taken out, and 10 μL of the test drug (C1 (a compound represented by Formula I, m is 3, R1 is OH, and R2 is H), C2 (a compound represented by Formula I, m is 3, R1 is Cl, and R2 is H), C3 (a compound represented by Formula I, m is 3, R1 is OCH3, and R2 is H), C4 (a compound represented by Formula I, m is 3, R1 is H, and R2 is H)), 10 μL of DOX with a final concentration of 25 μg/mL, and 80 μL of fresh culture medium were sequentially added. […] The absorbance (OD) value (450 nm) of each well was measured using an enzyme-linked immunosorbent assay (ELISA) reader to calculate the survival rate of granulosa cells of mice. […]
# [1] = system: Keap1-Nrf2/ARE signaling pathway; test: Western blot of Keap1-Nrf2/ARE pathway related proteins in H2O2 induced SH-SY5Y nerve cell injury model; assay type: cell-based, human; settings: NAC 1 mM pre-treated 1 hour, then H2O2 400 μM 24 hours, P<0.05
# Description: (§1) The culture of cells. Human neuroblastoma cells SH-SY5Y (American Type Culture Collection, Manassas, VA, USA) were cultivated in an incubator at 37° C. and a volume fraction of 5% CO2. The culture medium contains DMEM/F-12, 2 mM glutamine, 100 U/ml penicillin, 100 μg/ml streptomycin, and 10% FBS. Cells were seeded into a 96 well plate at a density of 2×10^4 cells per well and subjected to proliferation until 90%.
# (§2) The cells were randomly divided into four groups: blank control group, hydrogen peroxide group (Veh), Mep-S group, and NAC group (a neuroprotective drug used as a positive control). The cells of Mep-S group (1 μM) and NAC group (1 mM) were pre-treated with corresponding concentrations of drugs for 1 hour. Then, except for the blank control group which was given physiological saline, the cells of all other groups were incubated with H2O2 (400 μM) for 24 hours.
# Western blot was used to detect the expression levels of neuronal apoptosis protein (Caspase3) and Keap1-Nrf2/ARE pathway related proteins (Keap1, Nrf2, HO-1, NQO-1, etc.) in each group. The bands were visualized using enhanced chemiluminescence (Pierce, Rockford, IL, USA) and quantitative analysis was performed using Image Studio Lite 5.2.
# SH-SY5Y cells = test: Annexin V/PI dual staining, apoptosis by flow cytometry in H2O2 injured SH-SY5Y cells; assay type: cell-based, human; settings: NAC 1 mM pre-treated 1 hour, then H2O2 400 μM 24 hours; P<0.05
# Description: as §1, §2
# Annexin V/PI dual staining method was used to detect the protective effect of Mep-S on cellular oxidative damage. Cell apoptosis was measured by flow cytometry using FITC Annexin V apoptosis detection kit (BD Pharmingen, Franklin Lakes, NJ, USA). The operation was performed following the instructions.
# [2] = compared with H2O2 damage group
Compound,"Cell survival rate (%) (ovarian granulosa cells; 24 hours, CCK-8 (positive control group))",growth of granulosa cells (in words) (ovarian granulosa cells; p<0.01 versus negative control),phosphorylation level of Akt [1],"level of HO-1 protein [1, 2]","level of Keap 1 protein [1, 2]","level of NQO-1 protein [1, 2]","level of Nrf2 protein in the cell nucleus [1, 2]","level of Nrf2 protein in the cytoplasm [1, 2]",apoptosis rate of SH-SY5Y cells (SH-SY5Y cells)
"COc1cccc2c1C(=O)c1c(O)c3c(c(O)c1C2=O)C[C@@](O)(C(=O)CO)C[C@@H]3O[C@H]1C[C@H](N)[C@H](O)[C@H](C)O1 [DOX, doxorubicin]",61.8%,significantly inhibited the growth,,,,,,,
CC(=O)N[C@@H](CS)C(=O)O [NAC],,,significantly restores its expression level,significantly inhibits the decrease,inhibits the increase,significantly inhibits the decrease,significantly inhibits the decrease,inhibits the increase,significantly reduces the apoptosis rate
